Test results published in publication PMC8371461 (Frontiers in Pharmacology, 2021).

What was measured:
[1] = tested on: AKT; assay: AKT phosphorylation at the protein level in PSC; format: cell-based, mouse; conditions: 10 µM, 10 min, 1 and 3 h after exposure
[2] = molecular target: T1, AKT2 (Homo sapiens, UniProt P31751); assay: kinome scan; format: binding; conditions: 10 µM
T1 construct: purchased DiscoverX (KINOMEscan)

[3] = molecular target: T2, AKT3 (Homo sapiens, UniProt Q9Y243); assay: kinome scan; format: binding; conditions: 10 µM
T2 construct: purchased DiscoverX (KINOMEscan)

[4] = molecular target: T3, AMPK-alpha1 (Homo sapiens, UniProt Q13131); assay: kinome scan; format: binding; conditions: 10 µM
T3 construct: purchased DiscoverX (KINOMEscan)

[5] = molecular target: T4, ANKK1 (Homo sapiens, UniProt Q8NFD2); assay: kinome scan; format: binding
T4 construct: purchased DiscoverX (KINOMEscan)
T4 sequence (Q8NFD2 1-765): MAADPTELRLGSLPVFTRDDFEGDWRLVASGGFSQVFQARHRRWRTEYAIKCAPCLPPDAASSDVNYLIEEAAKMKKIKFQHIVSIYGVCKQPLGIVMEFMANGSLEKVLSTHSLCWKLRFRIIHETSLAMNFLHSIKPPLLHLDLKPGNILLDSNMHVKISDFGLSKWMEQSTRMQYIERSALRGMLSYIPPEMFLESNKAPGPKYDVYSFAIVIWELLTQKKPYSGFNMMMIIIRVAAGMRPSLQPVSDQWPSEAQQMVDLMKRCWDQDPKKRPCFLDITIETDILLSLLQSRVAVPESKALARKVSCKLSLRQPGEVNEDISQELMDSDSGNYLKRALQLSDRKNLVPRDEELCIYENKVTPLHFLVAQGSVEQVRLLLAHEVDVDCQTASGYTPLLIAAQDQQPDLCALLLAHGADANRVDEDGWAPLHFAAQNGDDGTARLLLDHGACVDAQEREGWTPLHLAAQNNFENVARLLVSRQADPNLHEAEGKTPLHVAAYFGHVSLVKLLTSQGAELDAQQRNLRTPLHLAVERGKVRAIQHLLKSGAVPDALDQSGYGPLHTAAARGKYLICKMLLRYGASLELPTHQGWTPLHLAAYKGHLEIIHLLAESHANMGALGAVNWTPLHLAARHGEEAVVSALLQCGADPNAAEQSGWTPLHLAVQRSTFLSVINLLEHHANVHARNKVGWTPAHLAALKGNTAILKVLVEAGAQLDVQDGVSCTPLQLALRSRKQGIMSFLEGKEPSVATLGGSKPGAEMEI

[6] = molecular target: T5, CDK4-cyclinD1 (Homo sapiens, UniProt P11802); assay: kinome scan; format: binding; conditions: 10 µM
T5 construct: purchased DiscoverX (KINOMEscan)

[7] = molecular target: T6, CDK4-cyclinD3 (Homo sapiens, UniProt P11802); assay: kinome scan; format: binding; conditions: 10 µM
T6 construct: purchased DiscoverX (KINOMEscan)

[8] = molecular target: T7, CHEK1 (Homo sapiens, UniProt O14757); assay: kinome scan; format: binding
T7 construct: purchased DiscoverX (KINOMEscan)

[9] = molecular target: T8, CSNK1E (Homo sapiens, UniProt P49674); assay: kinome scan; format: binding; conditions: 10 µM
T8 construct: purchased DiscoverX (KINOMEscan)

[10] = molecular target: T9, DAPK2 (Homo sapiens, UniProt Q9UIK4); assay: kinome scan; format: binding; conditions: 10 µM
T9 construct: purchased DiscoverX (KINOMEscan)

[11] = molecular target: T10, DCAMKL1 (Homo sapiens, UniProt O15075); assay: kinome scan; format: binding; conditions: 10 µM
T10 construct: purchased DiscoverX (KINOMEscan)

[12] = molecular target: T11, DYRK2 (Homo sapiens, UniProt Q92630); assay: kinome scan; format: binding
T11 construct: purchased DiscoverX (KINOMEscan)
T11 sequence (Q92630 1-601): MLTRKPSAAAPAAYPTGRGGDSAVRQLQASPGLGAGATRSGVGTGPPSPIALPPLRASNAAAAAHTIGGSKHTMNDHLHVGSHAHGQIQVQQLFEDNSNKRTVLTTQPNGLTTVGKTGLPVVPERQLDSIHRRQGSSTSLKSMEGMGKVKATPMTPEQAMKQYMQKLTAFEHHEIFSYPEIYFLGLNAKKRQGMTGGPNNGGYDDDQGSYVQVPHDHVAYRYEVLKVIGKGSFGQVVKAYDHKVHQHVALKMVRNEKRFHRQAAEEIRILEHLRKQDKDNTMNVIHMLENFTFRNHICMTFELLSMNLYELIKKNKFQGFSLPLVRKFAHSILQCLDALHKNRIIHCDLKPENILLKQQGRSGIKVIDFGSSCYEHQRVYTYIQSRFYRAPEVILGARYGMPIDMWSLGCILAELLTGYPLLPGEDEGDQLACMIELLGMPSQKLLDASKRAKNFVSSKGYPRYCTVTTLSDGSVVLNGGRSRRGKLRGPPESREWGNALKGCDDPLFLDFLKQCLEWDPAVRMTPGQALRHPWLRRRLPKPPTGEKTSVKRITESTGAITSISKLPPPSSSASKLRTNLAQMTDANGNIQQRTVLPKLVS

[13] = molecular target: T12, HIPK4 (Homo sapiens, UniProt Q8NE63); assay: kinome scan; format: binding; conditions: 10 µM
T12 construct: purchased DiscoverX (KINOMEscan)

[14] = molecular target: T13, HUNK (Homo sapiens, UniProt P57058); assay: kinome scan; format: binding; conditions: 10 µM
T13 construct: purchased DiscoverX (KINOMEscan)

[15] = molecular target: T14, MAP4K3 (Homo sapiens, UniProt Q8IVH8); assay: kinome scan; format: binding; conditions: 10 µM
T14 construct: purchased DiscoverX (KINOMEscan)

[16] = molecular target: T15, MKNK1 (Homo sapiens, UniProt Q9BUB5); assay: kinome scan; format: binding; conditions: 10 µM
T15 construct: purchased DiscoverX (KINOMEscan)

[17] = molecular target: T16, MYO3A (Homo sapiens, UniProt Q8NEV4); assay: kinome scan; format: binding; conditions: 10 µM
T16 construct: purchased DiscoverX (KINOMEscan)

[18] = molecular target: T17, PCTK2 (Homo sapiens, UniProt Q00537); assay: kinome scan; format: binding; conditions: 10 µM
T17 construct: purchased DiscoverX (KINOMEscan)

[19] = molecular target: T18, PFTAIRE2 (Homo sapiens, UniProt Q96Q40); assay: kinome scan; format: binding; conditions: 10 µM
T18 construct: purchased DiscoverX (KINOMEscan)

[20] = molecular target: T19, PHKG1 (Homo sapiens, UniProt Q16816); assay: kinome scan; format: binding; conditions: 10 µM
T19 construct: purchased DiscoverX (KINOMEscan)

[21] = molecular target: T20, PIK3C2B (Homo sapiens, UniProt O00750); assay: kinome scan; format: binding; conditions: 10 µM
T20 construct: purchased DiscoverX (KINOMEscan)

[22] = molecular target: T21, PIK3CA(E545A) (Homo sapiens, UniProt P42336, E545A); assay: kinome scan; format: binding; conditions: 10 µM
T21 construct: purchased DiscoverX (KINOMEscan)

[23] = molecular target: T22, VRK2 (Homo sapiens, UniProt Q86Y07); assay: kinome scan; format: binding; conditions: 10 µM
T22 construct: purchased DiscoverX (KINOMEscan)

[24] = tested on: Pregnane X receptor (PXR) signaling pathway; set-up: method as in CHEMBL3215112; conditions: reported activity, data mining; ref CHEMBL3215112; cited from earlier work

T7 sequence (O14757 whole entry): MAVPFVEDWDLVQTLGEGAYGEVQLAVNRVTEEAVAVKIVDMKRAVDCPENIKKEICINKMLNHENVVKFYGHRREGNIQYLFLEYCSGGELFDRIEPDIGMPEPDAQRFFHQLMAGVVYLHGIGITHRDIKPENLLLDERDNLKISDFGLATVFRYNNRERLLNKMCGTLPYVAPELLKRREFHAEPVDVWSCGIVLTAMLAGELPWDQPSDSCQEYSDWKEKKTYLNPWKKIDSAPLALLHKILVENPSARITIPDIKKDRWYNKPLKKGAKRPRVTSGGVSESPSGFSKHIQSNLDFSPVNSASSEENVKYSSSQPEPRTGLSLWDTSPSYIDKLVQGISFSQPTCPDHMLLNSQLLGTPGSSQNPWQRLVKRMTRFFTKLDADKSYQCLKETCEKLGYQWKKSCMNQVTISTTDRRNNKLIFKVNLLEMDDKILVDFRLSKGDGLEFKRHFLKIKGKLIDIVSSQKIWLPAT
T13 sequence (P57058 whole entry): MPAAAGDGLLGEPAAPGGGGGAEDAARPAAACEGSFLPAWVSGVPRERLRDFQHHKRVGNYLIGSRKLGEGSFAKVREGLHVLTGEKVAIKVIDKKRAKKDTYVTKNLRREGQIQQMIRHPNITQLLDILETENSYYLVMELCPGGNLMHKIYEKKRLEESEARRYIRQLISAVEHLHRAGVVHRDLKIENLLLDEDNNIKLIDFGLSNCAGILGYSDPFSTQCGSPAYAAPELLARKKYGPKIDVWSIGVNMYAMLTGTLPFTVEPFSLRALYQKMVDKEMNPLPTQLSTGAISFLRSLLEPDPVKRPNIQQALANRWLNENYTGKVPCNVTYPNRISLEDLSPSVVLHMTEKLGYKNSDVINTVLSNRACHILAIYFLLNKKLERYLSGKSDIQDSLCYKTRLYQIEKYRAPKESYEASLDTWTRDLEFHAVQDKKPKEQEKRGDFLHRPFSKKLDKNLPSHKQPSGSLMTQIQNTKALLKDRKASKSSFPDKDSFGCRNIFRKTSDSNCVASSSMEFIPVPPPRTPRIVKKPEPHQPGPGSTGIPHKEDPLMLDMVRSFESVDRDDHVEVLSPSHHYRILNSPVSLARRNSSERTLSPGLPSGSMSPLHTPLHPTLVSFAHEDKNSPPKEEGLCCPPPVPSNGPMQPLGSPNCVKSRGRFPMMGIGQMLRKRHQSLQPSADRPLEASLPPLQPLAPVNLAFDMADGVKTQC
T16 sequence (Q8NEV4 whole entry): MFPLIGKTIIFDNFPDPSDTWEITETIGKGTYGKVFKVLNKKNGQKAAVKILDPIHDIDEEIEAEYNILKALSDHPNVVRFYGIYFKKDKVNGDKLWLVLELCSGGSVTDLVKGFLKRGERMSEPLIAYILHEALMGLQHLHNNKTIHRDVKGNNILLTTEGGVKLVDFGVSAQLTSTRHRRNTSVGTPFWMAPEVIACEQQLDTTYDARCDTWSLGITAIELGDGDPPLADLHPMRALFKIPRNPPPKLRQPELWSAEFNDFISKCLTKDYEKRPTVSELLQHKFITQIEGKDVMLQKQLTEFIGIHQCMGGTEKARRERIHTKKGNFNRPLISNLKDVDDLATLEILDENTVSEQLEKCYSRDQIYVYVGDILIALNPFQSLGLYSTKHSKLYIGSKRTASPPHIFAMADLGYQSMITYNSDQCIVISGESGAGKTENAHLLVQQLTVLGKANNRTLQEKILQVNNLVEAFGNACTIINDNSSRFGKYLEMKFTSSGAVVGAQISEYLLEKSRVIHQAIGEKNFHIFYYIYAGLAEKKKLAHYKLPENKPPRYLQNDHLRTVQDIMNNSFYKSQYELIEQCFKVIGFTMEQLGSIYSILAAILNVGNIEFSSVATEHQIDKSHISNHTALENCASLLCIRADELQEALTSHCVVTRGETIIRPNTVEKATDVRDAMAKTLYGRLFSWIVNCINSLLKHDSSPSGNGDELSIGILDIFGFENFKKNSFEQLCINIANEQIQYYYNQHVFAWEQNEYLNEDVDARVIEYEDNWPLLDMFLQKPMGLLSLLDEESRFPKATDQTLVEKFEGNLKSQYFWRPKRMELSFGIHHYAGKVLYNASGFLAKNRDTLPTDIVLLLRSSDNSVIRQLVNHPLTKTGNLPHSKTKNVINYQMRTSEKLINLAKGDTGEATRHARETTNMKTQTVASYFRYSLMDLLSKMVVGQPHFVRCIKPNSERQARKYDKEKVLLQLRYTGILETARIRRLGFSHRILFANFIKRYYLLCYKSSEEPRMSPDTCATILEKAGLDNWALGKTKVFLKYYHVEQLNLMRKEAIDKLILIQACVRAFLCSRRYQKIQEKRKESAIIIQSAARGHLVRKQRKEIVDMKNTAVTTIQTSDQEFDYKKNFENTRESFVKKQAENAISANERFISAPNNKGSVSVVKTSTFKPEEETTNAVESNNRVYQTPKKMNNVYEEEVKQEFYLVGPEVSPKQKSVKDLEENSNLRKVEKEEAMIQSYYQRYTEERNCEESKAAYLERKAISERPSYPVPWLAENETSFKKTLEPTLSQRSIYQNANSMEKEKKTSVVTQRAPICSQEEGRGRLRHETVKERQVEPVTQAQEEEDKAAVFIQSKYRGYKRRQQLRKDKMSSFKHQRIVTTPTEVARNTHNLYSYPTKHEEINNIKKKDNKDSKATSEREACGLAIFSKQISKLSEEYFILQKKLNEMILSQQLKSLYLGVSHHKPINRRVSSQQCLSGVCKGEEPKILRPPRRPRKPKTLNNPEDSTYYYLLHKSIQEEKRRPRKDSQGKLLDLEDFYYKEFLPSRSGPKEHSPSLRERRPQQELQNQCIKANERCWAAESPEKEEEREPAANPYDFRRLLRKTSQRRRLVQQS
T8 sequence (P49674 whole entry): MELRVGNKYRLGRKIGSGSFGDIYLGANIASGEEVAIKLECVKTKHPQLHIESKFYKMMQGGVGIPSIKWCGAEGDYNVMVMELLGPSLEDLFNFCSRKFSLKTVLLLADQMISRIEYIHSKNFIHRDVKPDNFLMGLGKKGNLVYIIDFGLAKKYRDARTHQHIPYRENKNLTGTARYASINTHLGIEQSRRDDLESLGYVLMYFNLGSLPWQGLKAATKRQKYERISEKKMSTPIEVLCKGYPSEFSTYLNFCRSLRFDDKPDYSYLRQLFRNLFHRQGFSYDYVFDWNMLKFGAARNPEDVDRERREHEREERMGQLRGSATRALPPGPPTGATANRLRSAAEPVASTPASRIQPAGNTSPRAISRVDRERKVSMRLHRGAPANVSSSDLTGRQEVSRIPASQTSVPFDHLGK
T5 sequence (P11802 whole entry): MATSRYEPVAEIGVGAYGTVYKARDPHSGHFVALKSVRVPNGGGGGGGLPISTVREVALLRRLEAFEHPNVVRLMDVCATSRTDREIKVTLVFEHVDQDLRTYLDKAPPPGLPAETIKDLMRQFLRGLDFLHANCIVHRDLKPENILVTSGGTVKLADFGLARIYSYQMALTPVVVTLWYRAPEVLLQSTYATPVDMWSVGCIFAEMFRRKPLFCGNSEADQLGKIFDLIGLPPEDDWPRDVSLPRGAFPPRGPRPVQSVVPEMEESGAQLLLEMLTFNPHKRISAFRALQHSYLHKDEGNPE
T5 sequence (P24385 whole entry partner): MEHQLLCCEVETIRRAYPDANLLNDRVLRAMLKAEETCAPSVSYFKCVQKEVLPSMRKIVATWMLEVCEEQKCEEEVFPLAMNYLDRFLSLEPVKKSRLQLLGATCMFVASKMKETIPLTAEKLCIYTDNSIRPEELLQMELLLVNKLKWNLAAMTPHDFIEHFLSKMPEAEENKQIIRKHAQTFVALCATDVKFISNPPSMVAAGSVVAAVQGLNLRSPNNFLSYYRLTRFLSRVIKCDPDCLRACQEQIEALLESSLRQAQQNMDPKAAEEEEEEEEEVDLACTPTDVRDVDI
T6 sequence (P11802 whole entry): as the sequence (P11802 whole entry) above
T6 sequence (P30281 whole entry partner): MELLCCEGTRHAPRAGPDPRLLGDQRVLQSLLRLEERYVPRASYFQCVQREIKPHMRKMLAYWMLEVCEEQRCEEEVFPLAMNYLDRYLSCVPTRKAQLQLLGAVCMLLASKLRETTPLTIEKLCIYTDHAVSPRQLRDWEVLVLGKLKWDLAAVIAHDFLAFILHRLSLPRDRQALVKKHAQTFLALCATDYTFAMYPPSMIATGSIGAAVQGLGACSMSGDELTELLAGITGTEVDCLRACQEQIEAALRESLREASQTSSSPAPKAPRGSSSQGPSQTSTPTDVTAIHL
T15 sequence (Q9BUB5 whole entry): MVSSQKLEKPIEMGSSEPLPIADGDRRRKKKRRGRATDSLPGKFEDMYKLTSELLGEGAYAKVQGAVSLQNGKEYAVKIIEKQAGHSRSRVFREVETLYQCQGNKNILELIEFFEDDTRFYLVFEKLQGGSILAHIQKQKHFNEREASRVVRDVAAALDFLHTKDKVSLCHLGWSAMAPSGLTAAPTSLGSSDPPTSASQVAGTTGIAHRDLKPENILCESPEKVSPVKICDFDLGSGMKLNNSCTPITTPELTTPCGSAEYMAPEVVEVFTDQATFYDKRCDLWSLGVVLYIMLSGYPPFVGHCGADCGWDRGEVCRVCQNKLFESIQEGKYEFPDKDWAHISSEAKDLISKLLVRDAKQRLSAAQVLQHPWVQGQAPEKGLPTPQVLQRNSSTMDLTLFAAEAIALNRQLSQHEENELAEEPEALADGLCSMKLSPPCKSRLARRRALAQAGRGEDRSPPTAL
T19 sequence (Q16816 whole entry): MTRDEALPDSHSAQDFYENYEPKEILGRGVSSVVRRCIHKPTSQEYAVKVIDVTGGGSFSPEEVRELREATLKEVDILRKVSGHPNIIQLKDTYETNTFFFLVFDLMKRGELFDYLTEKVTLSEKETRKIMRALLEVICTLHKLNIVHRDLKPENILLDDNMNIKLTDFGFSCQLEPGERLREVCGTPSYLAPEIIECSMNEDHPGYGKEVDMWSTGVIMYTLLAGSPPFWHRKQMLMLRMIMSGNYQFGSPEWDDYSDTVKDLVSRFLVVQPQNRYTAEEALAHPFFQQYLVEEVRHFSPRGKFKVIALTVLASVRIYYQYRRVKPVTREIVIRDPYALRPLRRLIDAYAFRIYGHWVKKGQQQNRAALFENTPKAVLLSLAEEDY

In the case of `Nc1ccc(N=Nc2ccccc2)c(N)n1` [phenazopyridine, 2,6-diamino-3-(phenylazo)pyridine], the “phosphorylation of AKT” value [1] is reported as “reduced phosphorylation of AKT”, the kinase inhibition [2] is reported as 100 and the kinase inhibition [3] is reported as 92. The kinase inhibition [4] was 99, the “remaining binding (% of control)” value ([5]; 10 µM) was 18 and the remaining binding at 10 µM ([5]; read-out: % Of control) was 18%. For the same compound, the kinase inhibition [6] was 100, the kinase inhibition [7] was 100 and the kinase inhibition ([8]; CHEK1, 10 µM) was 100. The remaining binding at 10 µM ([8]; CHK1, read-out: Kinome scan (% of control at 10 µM)) was 100%, the kinase inhibition [9] was 44 and the kinase inhibition [10] was 100. For the same compound, the kinase inhibition [11] was 100, the “percent of control binding” value ([12]; 10 µM) was 20 and the remaining binding at 10 µM ([12]; read-out: % Of control) was 20%. The kinase inhibition [13] was 72, the kinase inhibition [14] was 100 and the kinase inhibition [15] was 74. For the same compound, the kinase inhibition [16] was 37, the kinase inhibition [17] was 100 and the kinase inhibition [18] was 98. The kinase inhibition [19] was 96, the kinase inhibition [20] was 98 and the kinase inhibition [21] was 70. For the same compound, the kinase inhibition [22] was 100, the kinase inhibition [23] was 86 and the Concentration [24] was 7.9 µM.
